Data from patent US4562275A, “Antitumor platinum complexes” (priority 1984, dated 1985).
Values joined by “and” are separate entries in the source; they are usually repeats but may differ in a detail not shown here. Equal values may be shown once.

What was measured:
BDF1 mice [1] = experiment: Nephrotoxicity: effect on blood urea nitrogen (BUN) in BDF1 mice; conditions: for BUN↑, Mouse: effect relative to cisplatin
Description: The other compounds were in such short supply that they were tested for effects on BUN values using the optimum dose (O.D.) from the L1210 test for dose selection.
The toxicity studies were done in male BDF1 mice (25-29 gm) and castrated male Fitch ferrets (1-1.5 kg).
The complexes that were active against L1210 were evaluated for nephrotoxicity by determining their effects on blood urea nitrogen (BUN) levels in mice. Groups of 40-50 mice/experiment were bled from the retro-orbital plexus and individual BUN values determined by a modified urease method using a Centrifichem System 400. The test complex, or saline for controls, was given at several dose levels (5-10 mice/dose) in single ip injections. The highest dose of the complex usually corresponded to its LD50 value or 1.5 times its optimal single dose in the L1210 experiment. At least two lower doses were included to evaluate dose-related effects. The BUN values were measured 4 and 7 days after dosing. BUN values ≥30 mg% were considered indicative of drug-induced nephrotoxicity.

B16 melanoma = experiment: Antitumor activity vs ip B16 melanoma in mice; format: in vivo, mouse; design: O.D.: unit not given here; conditions: for O.D.: ip B16 (3×; 9×); for Max. % T/C: ip B16 (3×; 9×): q4d × 3 or qd 1-9, ip, dying mice only
Source text: (§1) The methods used to evaluate the platinum complexes for antitumor activity and toxicity in animals are summarized below. These methods have been published elsewhere in more detail (Rose, et al. Cancer Treat. Rep. 66: 135, 1982; Florczyk, et al, Cancer Treat. Rep. 66: 187, 1982).
(§2) The parent line of L1210 leukemia (L1210) was maintained in DBA/2 mice by ip transplantation of 10^5 cells at weekly intervals. […] B16 malenoma (B16) was maintained by sc transplant in C57BL/6 mice every two weeks. Madison 109 lung carcinoma (M109) and colon 26 carcinoma (C26) were maintained by sc transplant in BALB/c mice every two weeks.
(§3) The level and route of tumor inoculum, host, group size, and drug treatment schedule and route for each tumor type are summarized below in Table 6. Each complex was evaluated initially against L1210 at 4 dose levels per schedule selected on the basis of lethality data provided by the Wadley Institute.
(§4) The L1210 experiments were terminated on Day 30 whereas the B16, C26 and M109 experiments were terminated on Day 60 (some C26 experiments were terminated on Day 75). Mice alive at the termination day were autopsied and considered cured if no tumor was visible. […] A complex was considered active if it produced a % T/C value ≥125.

C26 carcinoma = experiment: Antitumor activity vs ip C26 (colon 26) carcinoma in mice; format: in vivo, mouse; design: O.D.: unit not given here; conditions: for O.D.: ip C26 (2×; 4×); for Max. % T/C: ip C26 (2×; 4×): q3d × 2 or qd 1-4, ip, dying mice only
Source text: (§5) Results of antitumor testing against the transplantable mouse tumors L1210 leukemia, cisplatin-resistant L1210 leukemia, B16 melanoma, Madison 109 lung carcinoma and colon 26 carcinoma are shown below in Tables 1 and 2.
as §1, §2
as §3, with “Institute. In subsequent experiments with the other tumors the complexes were evaluated at a minimum of 3 dose levels selected on the basis of maximum tolerated levels in the L1210 experiments. Cisplatin-treated groups and a saline-treated (or untreated) tumor control group were included in each experiment.” for “Institute.”
as §4
8 q3d^b × 2 or qd 1-4, ip

L1210 leukemia = experiment: Antitumor activity vs transplantable L1210 leukemia (ip) in mice; format: in vivo, mouse; conditions: for Max % T/C: dying mice only; for OD (optimum dose): optimum dose from the L1210 test
Source text: The antitumor activities of the complexes provided by the present invention have been determined against L-1210 leukemia in the mouse and, for certain of the complexes, against other mouse tumor systems.
as §5
In Table 1 are shown the maximum % T/C values obtained for each platinum compound versus L1210 leukemia using both single and qd 1→5 dosing.
as §1, §2
as §3, with “Institute. In subsequent experiments with the other tumors the complexes were evaluated at a minimum of 3 dose levels selected on the basis of maximum tolerated levels in the L1210 experiments. Cisplatin-treated groups and a saline-treated (or untreated) tumor control group were included in each experiment.” for “Institute.”
as §4

M109 carcinoma = experiment: Antitumor activity vs ip M109 (Madison 109 lung) carcinoma in mice; format: in vivo, mouse; design: O.D.: unit not given here; conditions: for O.D.: ip M109 (2×; 4×); for Max. % T/C: ip M109 (2×; 4×): q3d × 2 or qd 1-4, ip, dying mice only
Source text: as §5, §1, §2
as §3, with “Institute. In subsequent experiments with the other tumors the complexes were evaluated at a minimum of 3 dose levels selected on the basis of maximum tolerated levels in the L1210 experiments. Cisplatin-treated groups and a saline-treated (or untreated) tumor control group were included in each experiment.” for “Institute.”
as §4
8 q3d^a × 2 or qd 1-4, ip

[2] = test system: L1210/CDDP (cisplatin resistant line of L1210 leukemia); experiment: Antitumor activity vs cisplatin-resistant L1210 leukemia (L1210/CDDP) in mice; format: in vivo, mouse; conditions: for Cures/total / O.D. (optimal dose): Day 1; for Max % T/C: Day 1, dying mice only
Source text: Results of antitumor testing against the transplantable mouse tumors L1210 leukemia, cisplatin-resistant L1210 leukemia, B16 melanoma, Madison 109 lung carcinoma and colon 26 carcinoma are shown below in Tables 1 and 2. […]
as §1, §2
as §3, with “Institute. In subsequent experiments with the other tumors the complexes were evaluated at a minimum of 3 dose levels selected on the basis of maximum tolerated levels in the L1210 experiments. Cisplatin-treated groups and a saline-treated (or untreated) tumor control group were included in each experiment.” for “Institute.”
as §4

[3] = Solubility stated in the preparation examples
BDF1 mice [4] = experiment: Deaths (D.14) in the BUN test in BDF1 mice; format: in vivo, mouse
ferret = experiment: Emetic effects (and lethality) in the ferret; format: in vivo, castrated male Fitch ferrets; conditions: for No. With Emesis/No. tested: 6 h observation
Description: Selected complexes were evaluated for emetic effects in ferrets. […] The time to the first emetic episode (retching and expulsion of vomitus) and the number of episodes were recorded. […] Subsequent test doses were selected based on the emetic response and lethality of the initial dose.

[5] = L1210, single dose Day 1, ip, (a), (b) determinations
[6] = L1210, single dose Day 1, ip, dose giving the Max % T/C, same order

SMILES | BUN↑, Mouse (BDF1 mice [1]) | O.D. (B16 melanoma) | Max. % T/C (B16 melanoma) [%] | O.D. (C26 carcinoma) | Max. % T/C (C26 carcinoma) [%] | O.D. (optimal dose) (L1210 leukemia; L1210, QD 1 → 5, ip) | Max % T/C (L1210 leukemia; L1210, QD 1 → 5, ip) | Max % T/C (L1210 leukemia; [5]) | O.D. (optimal dose) (L1210 leukemia; [6]) | OD (optimum dose) (L1210 leukemia) [mg/kg/ip] | O.D. (M109 carcinoma) | Max. % T/C (M109 carcinoma) [%] | Cures/total [2] | O.D. (optimal dose) [2] [mg/kg/inj] | Max % T/C [2] [%] | also measured
NCC1(N)CCCCCCC1.[O-]B([O-])O.[Pt+2] [Example 13, borato 1-aminomethylcyclooctylamine platinum(II)] | 0 | 2 | 167 | 8 | 88 | 4 mg/kg/inj | 207% | 229% and 207% | 16 mg/kg/inj | 16 | 3 | 81 | 2/6 | 8 | 256 | Incidence of BUN > 30 mg % (BDF1 mice [1]; 16 mg/kg ip): 0/5; Incidence of BUN > 30 mg % (BDF1 mice [1]; 24 mg/kg ip): 0/5; Ratio of Max. % T/C Complex/cDDP (B16 melanoma; ip B16, relative to concomitant cisplatin): .90; Ratio of Max. % T/C Complex/cDDP (C26 carcinoma; ip C26, relative to concomitant cisplatin): .61; Ratio of Max. % T/C Complex/cDDP (M109 carcinoma; ip M109, relative to concomitant cisplatin): .52; Solubility in methanol ([3]; methanol): soluble; Solubility in water ([3]; water): soluble; Deaths D.14 (BDF1 mice [4]; 16 mg/kg ip): 0/5; Deaths D.14 (BDF1 mice [4]; 24 mg/kg ip): 0/5
CC(=O)CC(=O)[O-].CC(=O)CC(=O)[O-].N[C@@H]1CCCC[C@H]1N.[Pt+2] (relative stereo) [Example 4, bis(acetoacetato) trans(-)-1,2-diaminocyclohexane platinum(II)] | 0 | 1 | 150 | 5 | 120 | 5 mg/kg/inj | 214% | 200% and 207% | 20 mg/kg/inj and 18 mg/kg/inj | 20 | 8 | 119 | – | 12 | 163 | Incidence of BUN > 30 mg % (BDF1 mice [1]; 20 mg/kg ip): 0/5; Incidence of BUN > 30 mg % (BDF1 mice [1]; 30 mg/kg ip): 0/5; Cures/total (L1210 leukemia; L1210, QD 1 → 5, ip): 1/6; Deaths D.14 (BDF1 mice [4]; 20 mg/kg ip): 0/5; Deaths D.14 (BDF1 mice [4]; 30 mg/kg ip): 0/5
N[C@@H]1CCCC[C@H]1N.O=C([O-])CC(=O)C(=O)[O-].[Pt+2] (relative stereo) [Example 2, oxaloacetato trans(-)-1,2-diaminocyclohexane platinum(II)] | 0 | 2 | 150 | 10 | 143 | 7.5 mg/kg/inj | 243% | 214% and 217% | 30 mg/kg/inj and 40 mg/kg/inj | 30 | 12 | 156 | 4/6 | 24 | 194 | Incidence of BUN > 30 mg % (BDF1 mice [1]; 30 mg/kg ip): 0/5; Incidence of BUN > 30 mg % (BDF1 mice [1]; 45 mg/kg ip): 0/4; Deaths D.14 (BDF1 mice [4]; 30 mg/kg ip): 0/5; Deaths D.14 (BDF1 mice [4]; 45 mg/kg ip): 1/5; Emesis Episodes (ferret; 16 mg/kg iv): 3; Emesis onset in responding animals (ferret; 16 mg/kg iv): 41 min; No. With Emesis/No. tested (ferret; 16 mg/kg iv): 1/1
N[C@@H]1CCCC[C@H]1N.O=C([O-])CCC(=O)C(=O)[O-].[Pt+2] (relative stereo) [Example 14, 2-ketoglutarato trans(-)-1,2-diaminocyclohexane platinum(II)] | – | 3 | 135 | – | – | 16 mg/kg/inj | 250% | 214% and 193% | 16 mg/kg/inj | – | – | – | 2/6 | 12 | 169 | –
Cc1cn(C2CC(O)C(COP(=O)([O-])[O-])O2)c(=O)[nH]c1=O.NC1CCCCC1N.[Pt+2] (stereo not drawn) [Example 6, thymidylato trans(-)-1,2-diaminocyclohexane platinum(II)] | 0 | 6 | 177 | 36 | 109 | 10 mg/kg/inj | 221% | 200% and 207% | 40 mg/kg/inj and 45 mg/kg/inj | 40 | 12 | 95 | – | 20 | 175 | Incidence of BUN > 30 mg % (BDF1 mice [1]; 40 mg/kg ip): 0/5; Incidence of BUN > 30 mg % (BDF1 mice [1]; 60 mg/kg ip): 0/5; Deaths D.14 (BDF1 mice [4]; 40 mg/kg ip): 0/5; Deaths D.14 (BDF1 mice [4]; 60 mg/kg ip): 0/5; Emesis Episodes (ferret; 32 mg/kg iv): 13.5; Emesis onset in responding animals (ferret; 32 mg/kg iv): 17.5 min; No. With Emesis/No. tested (ferret; 32 mg/kg iv (lethal dose)): 2/2; Lethal dose (ferret; ferret, doses marked * = Lethal dose): 32 mg/kg iv
N[C@@H]1CCCC[C@H]1N.[O]=[Cr](=[O])([O-])[O-].[Pt+2] (relative stereo) [Example 9, chromato trans(-)-1,2-diaminocyclohexane platinum(II)] | 0 | 6 | 172 | 24 | 106 | 6 mg/kg/inj and 12 mg/kg/inj | 143% and 214% | 150% and 200% | 24 mg/kg/inj and 48 mg/kg/inj | 48 | 20 | 119 | – | – | – | Incidence of BUN > 30 mg % (BDF1 mice [1]; 48 mg/kg ip): 0/5; Incidence of BUN > 30 mg % (BDF1 mice [1]; 72 mg/kg ip): 0/5; Deaths D.14 (BDF1 mice [4]; 48 mg/kg ip): 0/5; Deaths D.14 (BDF1 mice [4]; 72 mg/kg ip): 0/5
N[C@@H]1CCCC[C@H]1N.[O-]B([O-])O.[Pt+2] [Example 1, borato trans(-)-1,2-diaminocyclohexane platinum(II)] | 0 | 1 | 150 | 5 | 134 | 2 mg/kg/inj | 243% | 214% and 242% | 16 mg/kg/inj and 8 mg/kg/inj | 16 | 2 | 147 | 2/6 | 8 | 188 | Incidence of BUN > 30 mg % (BDF1 mice [1]; 16 mg/kg ip): 0/5; Incidence of BUN > 30 mg % (BDF1 mice [1]; 24 mg/kg ip): 0/3; Deaths D.14 (BDF1 mice [4]; 16 mg/kg ip): 0/5; Deaths D.14 (BDF1 mice [4]; 24 mg/kg ip): 3/5
